Assay results taken from patent EP0333004A2, “Light sensitive diazonium compounds, process for their preparation and their use” (priority 1988, dated 1989).

Columns and labels:
[1] = species and route not given; cited from earlier work
[2] = Combustion number (Brennziffer, BZ), safety characteristic; assay type: physicochemical; settings: solid isolated diazonium salt form
[3] = Dust explosion class (ST), safety characteristic; assay type: physicochemical; settings: solid isolated diazonium salt form
[4] = Onset of exothermic decomposition (EZ); assay type: physicochemical; settings: for Exotherme Zer-setzung (EZ): temperature at which exothermic decomposition begins
[5] = Differential thermal analysis (DTA), violence of decomposition; assay type: physicochemical; settings: characterises the violence of decomposition
[6] = Impact sensitivity; assay type: physicochemical
[7] = Explosion hazard; assay type: physicochemical
[8] = Solubility in water; assay type: physicochemical; settings: 20 °C

Molecule | LD₅₀-Wert (LD - Letale Dosis) [1] | Brenn-ziffer (BZ) [2] | Staubexplo-sionsklasse (ST) [3] | exotherme Zersetzung, höher als bei dem entsprechenden Zinkchlorid-Doppelsalz ([4]; difference to the corresponding zinc chloride double salt) | Exotherme Zer-setzung (EZ) [4] | Differential-thermoanalyse (DTA) [5] | schlagemp-findlich [6] | explosions-gefährlich [7] | Löslichkeit in Wasser [8] | solubility ([8]; read-out: Löslichkeit in Wasser)
O=C(O)c1cc(S(=O)(=O)O)ccc1O [Sulfosalicylsäure] | 2450 mg/kg |  |  |  |  |  |  |  |  | 
4-N,N-Dimethylaminobenzoldiazonium-sulfosalicylat [Sulfosalicylat R1=R2=CH3 R3 = H] |  | 3 | 1 | 40 °C | 140 °C | -490 kJ/kg | nein | nein | 10,4 g/l | 
4-N,N-Dimethylaminobenzoldiazoniumchlorzinkat [ZnCl2 stabilisiert R1=R2=CH3 R3 = H, reference compound] |  | 3 | 0 |  | 100 °C | -720 kJ/kg | nein | nein |  | 
Cc1cc([N+]#N)ccc1N1CCCC1 [Sulfosalicylat R1,R2=(CH2)4 R3 = CH3, 3-Methyl-4-N-pyrrolidinobenzoldiazonium-sulfosalicylat] |  | 3 | 1 |  | 120 °C | -400 kJ/kg | nein | nein |  | 
CN(C)c1ccc([N+]#N)cc1 [4-N,N-Dimethylaminobenzoldiazonium-sulfoisophthalat, reference compound] |  |  |  |  |  |  |  |  |  | 3800 µg/mL
